Data reported in patent US11414419B2, “Substituted purines for the treatment of neurodegenerative and mitochondrial diseases” (Mitokinin, Inc., priority 2017, dated 2022).

Legend:
in vivo = conditions: rat; for AUC(0-inf) / AUC(0-t) / Cmax / half-life / MRT inf / Tmax: male, SD; for AUC(0-inf): AUCINF_pred; for AUC(0-t): AUClast; for half-life: HL_Lambda_z (T1/2); for MRT inf: MRTINF_pred
Protocol: Compounds tested were as follows: kinetin (MW=215.21); MTK-115 (MW=243.26); MTK-115D (MW=219.29); MTK-125A (MW=217.27); and MTK-63A (MW=203.24). Formulation concentrations were 0.2 mg/mL for IV delivery; 0.5 mg/mL for PO delivery. Dosing was as follows: IV: 1 mg/kg, 5 mL/kg; PO: 5 mg/kg, 10 mL/kg. Results are as follows:
Compounds were prepared in a formulation of 4% DMSO, 15% Solutol HS 15, 81% PBS and then administered to male SD rats via oral gavage at 5 mg/kg (n=3 per compound). Plasma draws were taken at 15m, 30m, 1 hr, 2 hr, 4 hr, 8 hr, and 24 hrs, then analyzed by mass spectrometry for presence of the compound. Data were then plotted, and AUC values calculated.

PINK1 = target: T1, PINK1 (Homo sapiens, UniProt Q9BXM7); test: PINK1-specific mitophagy assay (FACS for lysosomal-positive mt-mKeima); format: cell-based
T1 construct: expressed in transfected cells; host or cells: HeLa cells, retroviral transduction; they also stably express FRB-Fis1, mt-mKeima and Parkin
From the text: mt-mKeima was cloned into a pCHAC-MCS-1-IRES-MCS2 vector. PINK1D110-YFP-23FKBP wild-type was cloned into pRetroQ-AcGFP-C1 at NheI/XhoI sites by Gibson assembly kit. The HA-tag was removed, and stop codon introduced. Wild-type HeLa cells stably expressing FRB-Fis1, mt-mKeima, Parkin, and wild-type PINK1D110-YFP-23FKBP were generated using retroviral transduction as described previously. Flag/HA-receptors were stably expressed in these cells by lentivirus transduction as described previously then treated with varying concentrations (see Table 2) of the experimental compounds for 5 days, followed by 1 uM rapalog for 24 h. Cells were then resuspended in sorting buffer (145 mM NaCl, 5 mM KCl, 1.8 mM CaCl2, 0.8 mM MgCl2, 10 mM HEPES, 10 mM glucose, 0.1% BSA) containing […] DAPI. Analysis was performed using Summit software (v6.2.6.16198) on a Beckman Coulter MoFlo Astrios cell sorter. Measurements of lysosomal mt-mKeima were made using dual-excitation ratiometric pH measurements at 488 (pH7) and 561 (pH4) nm lasers with 620/29 nm and 614/20 nm emission filters, respectively. For each sample, 50,000 events were collected and subsequently gated for YFP/mt-mKeima double-positive cells that were DAPI-negative. Data were analysed using FlowJo (v10, Tree Star).

[1] = test system: Parkin-expressing HeLa cells with intact wt PINK1; test: Cytotoxicity experiments (DAPI stain, FACS); format: cell-based; conditions: 50 uM, 24 hrs, versus MTK-64, FIG. 6
Protocol: Compounds were incubated for 24 hrs at 50 uM in Parkin-expressing HeLa cells with intact wt PINK1. After 24 hrs, cells were DAPI stained according to standard protocols and assayed via FACS.

[2] = rapalog + experimental compound 12.5 uM
[3] = rapalog + experimental compound 25 uM
[4] = rapalog + experimental compound 50 uM

T1 sequence (Q9BXM7 111-581 limits assumed): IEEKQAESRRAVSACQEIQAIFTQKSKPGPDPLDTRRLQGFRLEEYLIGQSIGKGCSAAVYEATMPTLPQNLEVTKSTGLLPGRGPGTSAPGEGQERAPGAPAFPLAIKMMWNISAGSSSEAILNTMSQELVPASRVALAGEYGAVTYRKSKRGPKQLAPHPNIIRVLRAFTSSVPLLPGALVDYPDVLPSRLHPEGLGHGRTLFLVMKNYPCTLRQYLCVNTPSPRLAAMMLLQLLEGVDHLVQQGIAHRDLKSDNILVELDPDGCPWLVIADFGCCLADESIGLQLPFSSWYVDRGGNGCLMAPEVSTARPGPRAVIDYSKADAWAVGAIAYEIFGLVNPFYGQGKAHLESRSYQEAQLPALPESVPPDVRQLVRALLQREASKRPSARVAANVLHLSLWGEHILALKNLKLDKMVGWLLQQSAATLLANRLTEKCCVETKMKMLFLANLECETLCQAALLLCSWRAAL

| Structure (SMILES) | AUC(0-inf) (in vivo; iv, 1 mg/kg) [µg·h/mL] | AUC(0-t) (in vivo; iv, 1 mg/kg) [µg·h/mL] | Cmax (in vivo; iv, 1 mg/kg) [µg/mL] | half-life (in vivo; iv, 1 mg/kg) [min] | MRT inf (in vivo; iv, 1 mg/kg) [min] | Tmax (in vivo; iv, 1 mg/kg, Tmax) [min] | Tmax (in vivo; po, 5 mg/kg) [min] | AUC(0-inf) (in vivo; po, 5 mg/kg) [µg·h/mL] | AUC(0-t) (in vivo; po, 5 mg/kg) [µg·h/mL] | Cmax (in vivo; po, 5 mg/kg) [µg/mL] | half-life (in vivo; po, 5 mg/kg) [min] | MRT inf (in vivo; po, 5 mg/kg) [min] | Tmax (in vivo; po, 5 mg/kg, Tmax) [min] | percentage of cells undergoing mitophagy (PINK1; [2]) [%] | percentage of cells undergoing mitophagy (PINK1; [3]) [%] | percentage of cells undergoing mitophagy (PINK1; [4]) [%] | oral PK, AUC versus comparator (in vivo; 5 mg/kg) | increase in activity (mitophagy) (PINK1; versus MTX-63H (hydrogen instead of methyl at R3), FIG. 5) [%] | toxicity versus mono-substituted comparator [1] |
| --- | --- | --- | --- | --- | --- | --- | --- | --- | --- | --- | --- | --- | --- | --- | --- | --- | --- | --- | --- |
| C/C=C/CNc1nc(C)nc2[nH]cnc12 [MTK-63A] | 0.36 | 0.359 | 1.14 | 7.8 | 10.2 | 4.8 | 18 | 0.305 | 0.294 | 0.305 | 97.8 | 145 | 15 |  |  |  |  |  |  |
| C/C=C/CNc1nc(C)nc2[nH]c(C)nc12 [MTK-115A] |  |  |  |  |  |  |  |  |  | 0.769 |  | 175 |  | 7.26 | 7.76 | 8.41 | substantial increase in AUC |  |  |
| CCCCNc1nc(C)nc2[nH]c(C)nc12 [MTK-115D] | 0.47 | 0.469 | 1.44 | 7.2 | 10.2 | 4.8 |  |  |  |  | 39.6 | 182 |  | 16.7 | 18.1 | 18.6 |  | ~40 |  |
| Cc1nc(NCc2ccco2)c2nc(C)[nH]c2n1 [MTK-115] |  |  | 1.85 | 23.4 | 24.6 | 4.8 |  | 5.45 | 5.3 | 1.04 | 69 | 203 | 240 | 13.4 | 16 | 18.4 |  |  | substantial decrease in toxicity |
| c1coc(CNc2ncnc3[nH]cnc23)c1 [kinetin, reference compound] | 0.057 | 0.0568 | 0.176 | 7.2 | 10.8 | 4.8 |  | 0.13 | 0.122 |  | 64.8 | 79.2 | 15 |  |  |  |  |  |  |
